Laboratory results as given in ChEMBL document CHEMBL5375944, “Discovery of Potent Agonists for the Predominant Variant of the Orphan MAS-Related G Protein-Coupled Receptor X4 (MRGPRX4)” (J Med Chem, 2023).
Converted amounts (≈) assume the structure as drawn.

Tests used:
[1] = Agonist activity at MRGPRX4 83S (unknown origin) expressed in CHO-K1 cells assessed as induction of beta-arrestin recruitment measured after 90 mins by luminescence assay; assay type: cell-based; conditions: Homo sapiens, CHO-K1, 1.5 h
[2] = Agonist activity at MRGPRX4 83L (unknown origin) expressed in human 1321N1 glioblastoma cells assessed as change in intracellular calcium level by calcium mobilization assay; assay type: cell-based
[3] = Agonist activity at MRGPRX4 83L (unknown origin) expressed in HEK293 cells co-expressing Galpha15 assessed as change in intracellular calcium level by FLIPR assay; assay type: cell-based; conditions: Homo sapiens
[4] = Agonist activity at MRGPRX4 83L (unknown origin) expressed in CHO cells assessed as induction of beta-arrestin recruitment measured after 90 mins by luminescence assay; assay type: cell-based; conditions: Homo sapiens, 1.5 h
[5] = Agonist activity at MRGPRX4 83S in human LN229 glioblastoma cells assessed as change in intracellular calcium level by calcium mobilization assay; assay type: cell-based
[6] = molecular target: Mas-related G-protein coupled receptor member X1 (Homo sapiens, UniProt Q96LB2); assay: Agonist activity at MRGPRX1 (unknown origin) by beta-arrestin recruitment assay
Chain of Mas-related G-protein coupled receptor member X1 (Q96LB2 whole entry): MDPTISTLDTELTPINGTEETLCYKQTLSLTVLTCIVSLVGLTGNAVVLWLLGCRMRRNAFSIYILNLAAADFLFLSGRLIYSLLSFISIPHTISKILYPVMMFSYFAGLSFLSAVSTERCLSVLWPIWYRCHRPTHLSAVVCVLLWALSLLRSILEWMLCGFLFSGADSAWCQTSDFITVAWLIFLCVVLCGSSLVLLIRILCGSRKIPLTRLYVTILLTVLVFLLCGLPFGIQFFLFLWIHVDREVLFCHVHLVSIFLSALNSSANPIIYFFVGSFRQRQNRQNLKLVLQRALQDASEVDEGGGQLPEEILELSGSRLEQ

[7] = molecular target: G-protein coupled receptor 143 (Homo sapiens, UniProt P51810); assay: Agonist activity at GPR143 (unknown origin) by beta-arrestin recruitment assay
Chain of G-protein coupled receptor 143 (P51810 whole entry): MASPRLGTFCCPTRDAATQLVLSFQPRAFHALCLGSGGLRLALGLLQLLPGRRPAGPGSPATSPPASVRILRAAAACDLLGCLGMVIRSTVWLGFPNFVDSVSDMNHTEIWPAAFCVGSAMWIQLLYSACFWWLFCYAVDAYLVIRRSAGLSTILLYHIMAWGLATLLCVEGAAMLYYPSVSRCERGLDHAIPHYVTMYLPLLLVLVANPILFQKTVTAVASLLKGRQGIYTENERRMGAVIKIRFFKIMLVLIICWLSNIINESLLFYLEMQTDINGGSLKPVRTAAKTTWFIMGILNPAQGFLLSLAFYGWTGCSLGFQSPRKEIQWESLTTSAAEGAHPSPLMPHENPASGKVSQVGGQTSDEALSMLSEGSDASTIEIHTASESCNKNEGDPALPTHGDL

[8] = molecular target: Mas-related G-protein coupled receptor member X3 (Homo sapiens, UniProt Q96LB0); assay: Agonist activity at MRGPRX3 (unknown origin) by beta-arrestin recruitment assay; assay type: functional
Chain of Mas-related G-protein coupled receptor member X3 (Q96LB0 whole entry): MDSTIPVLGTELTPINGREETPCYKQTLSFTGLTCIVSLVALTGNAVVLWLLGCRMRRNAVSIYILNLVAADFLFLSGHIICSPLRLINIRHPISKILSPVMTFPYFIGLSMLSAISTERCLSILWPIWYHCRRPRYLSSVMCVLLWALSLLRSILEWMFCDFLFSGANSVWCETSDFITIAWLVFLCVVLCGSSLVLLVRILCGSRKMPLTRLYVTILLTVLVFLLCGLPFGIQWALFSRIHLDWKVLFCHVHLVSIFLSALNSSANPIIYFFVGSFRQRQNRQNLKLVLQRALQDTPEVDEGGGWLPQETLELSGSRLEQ

[9] = Agonist activity at MRGPRX4 83L (unknown origin) expressed in HEK293 cells co-expressing Gq assessed as change in intracellular calcium level by FLIPR assay; assay type: cell-based; conditions: Homo sapiens
[10] = Agonist activity at MRGPRX4 83S (unknown origin) expressed in HEK293 cells co-expressing Gq assessed as change in intracellular calcium level by FLIPR assay; assay type: cell-based; conditions: Homo sapiens
[11] = Metabolic stability of the compound in human liver microsomes assessed as half life at 1 uM in presence of NADPH by LC-MS analysis; assay type: ADME, Microsome
[12] = Kinetic solubility of compound in PBS at pH 7.4 incubated for 3 days; assay type: physicochemical; conditions: time 3 day, read-out: Kinetic_solubility
[13] = system: LN-229; assay: Cytotoxicity against human LN-229 glioblastoma cells assessed as cell viability upto 30 uM measured after 3 days by MTT assay; assay type: toxicity, cell-based; conditions: ln-229, 72 h, time 3 day
[14] = Agonist activity at MRGPRX4 83S in human LN229 glioblastoma cells assessed as change in intracellular calcium level at 10 uM by calcium mobilization assay relative to control
[15] = Agonist activity at MRGPRX4 83L (unknown origin) expressed in human 1321N1 glioblastoma cells assessed as change in intracellular calcium level 10 uM by calcium mobilization assay relative to control

Compound | EC50 [1] [µM] | EC50 [2] [µM] | EC50 [4] [µM] | EC50 [5] [µM] | also measured
C[C@H](CCC(=O)O)[C@H]1CC[C@H]2[C@@H]3[C@@H](O)C[C@@H]4C[C@H](O)CC[C@]4(C)[C@H]3CC[C@]12C [URSODIOL] | 3.27 | 41.1 | 33.8 | 47.5 | EC50 [3]: 4.93 µM
C#CCn1c(=O)c2[nH]c(CCc3cccc(OC)c3)nc2n(CCCOC(C)=O)c1=O | > 10 | > 10 | > 10 | > 10 | –
C#CCn1c(=O)c2c(nc(/C=C/c3cccc(OC)c3)n2C)n(CCCOP(=O)(O)O)c1=O | – | – | – | – | EC50 [6]: > 10 µM; EC50 [7]: > 10 µM; EC50 [8]: > 10 µM
C#CCn1c(=O)c2c(nc(-c3cccc(OC)c3)n2C)n(CCCOP(=O)(O)O)c1=O | > 10 | > 10 | > 10 | > 10 | –
C#CCn1c(=O)c2[nH]c([C@@H]3C[C@H]3c3ccccc3)nc2n(CCCCP(=O)(O)O)c1=O | > 10 | > 10 | > 10 | > 10 | –
COc1cccc(CCc2nc3c([nH]2)c(=O)n(CC2CCC2)c(=O)n3CCCCP(=O)(O)O)c1 | 0.0689 | 1.6 | > 10 | 0.0599 | –
C#CCn1c(=O)c2c(nc(C#Cc3cccc(OC)c3)n2C)n(CCCOP(=O)(O)O)c1=O | > 10 | > 10 | > 10 | > 10 | –
C#CCn1c(=O)c2[nH]c(C(C)Cc3ccccc3)nc2n(CCCCP(=O)(O)O)c1=O (configuration not stated) | 0.0277 | 6.17 | 3.94 | 0.0345 | –
C#CCn1c(=O)c2[nH]c(CCc3cccc(OC)c3)nc2n(CCCCP(=O)(OCC)OCC)c1=O | > 10 | > 10 | > 10 | > 10 | –
C[C@]12C[C@@H]3C[C@](C)(C1)C[C@@](C(=O)N[C@H](Cc1ccccc1)C(=O)O)(C3)C2 | 3.98 | 0.00656 | 0.548 | 13.3 | EC50 [9]: 0.149 µM; EC50 [10]: > 10 µM
CCn1c(=O)c2[nH]c(CCc3cccc(OC)c3)nc2n(CCCCP(=O)(O)O)c1=O | 1.19 | 3.8 | > 10 | 0.214 | –
C#CCn1c(=O)c2[nH]c(CCc3cccc(OC)c3)nc2n(CCCCP(=O)(O)O)c1=O | 0.032 | 0.435 | 5.71 | 0.0112 | half-life at 1 µM [11]: > 4.5 h; solubility kinetic at 72 h [12]: 218 µM (≈ 100 µg/mL); Activity [13]: Non-Toxic
CC(C)[C@H]1CC[C@H](C(=O)N[C@H](Cc2ccccc2)C(=O)O)CC1 [NATEGLINIDE] | 28.4 | 0.198 | 4.09 | > 10 | EC50 [9]: 4.72 µM; EC50 [10]: > 10 µM; Activity [14]: 0%
C#CCn1c(=O)c2c(nc(/C=C/c3cccc(OC)c3)n2C)n(CCCO)c1=O | – | – | – | > 10 | –
C[C@H](CCC(=O)NCCS(=O)(=O)O)[C@H]1CC[C@H]2[C@@H]3CC[C@@H]4C[C@H](O)CC[C@]4(C)[C@H]3C[C@H](O)[C@]12C [TAURODEOXYCHOLIC ACID] | 54.5 | > 10 | 55.7 | > 10 | EC50 [9]: 14.1 µM; Activity [14]: 6%; Activity [15]: 1%
C#CCn1c(=O)c2[nH]c(COc3ccccc3)nc2n(CCCCP(=O)(O)O)c1=O | 1.85 | > 10 | > 10 | > 10 | –
C#CCn1c(=O)c2c(nc(CCc3cccc(OC)c3)n2C)n(CCCCP(=O)(O)O)c1=O | 0.03 | 0.333 | 6.28 | 0.0192 | half-life at 1 µM [11]: > 16 h; Activity [13]: Non-Toxic
C#CCn1c(=O)c2[nH]c(CCc3cccc(OC)c3)nc2n(CCCO)c1=O | > 10 | > 10 | > 10 | > 10 | –
C#CCn1c(=O)c2[nH]c(/C=C/c3cccc(OC)c3)nc2n(CCCCP(=O)(O)O)c1=O | 0.2 | > 10 | > 10 | 0.0116 | –
C#CCn1c(=O)c2[nH]c(CCc3cccc(OC)c3)nc2n(CCCCC(=O)O)c1=O | 6.72 | > 10 | > 10 | > 10 | –
C#CCn1c(=O)c2[nH]c(CCc3cccc(OC)c3)nc2n(CCCCS(=O)(=O)O)c1=O | > 10 | > 10 | > 10 | > 10 | –
C#CCn1c(=O)c2[nH]c(CCc3ccccc3)nc2n(CCCCP(=O)(O)O)c1=O | 0.399 | 3.25 | > 10 | 0.134 | –
C[C@H](CCC(=O)O)[C@H]1CC[C@H]2[C@@H]3CC[C@@H]4C[C@H](O)CC[C@]4(C)[C@H]3C[C@H](O)[C@]12C [DEOXYCHOLIC ACID] | 1.68 | 11.2 | 24.6 | 169 | EC50 [3]: 2.6 µM
C#CCn1c(=O)c2[nH]c(C(C)Cc3ccccc3)nc2n(CCCCP(=O)(O)OCC)c1=O (configuration not stated) | > 10 | > 10 | > 10 | > 10 | –
O=C(O)[C@@H](Cc1ccccc1)NC(=O)C12CC3CC(CC(C3)C1)C2 | 64.1 | 0.126 | 6.7 | > 10 | EC50 [9]: 0.581 µM; Activity [14]: 1%
C#CCn1c(=O)c2c(nc(CCc3cccc(OC)c3)n2C)n(CCCOP(=O)(O)O)c1=O | 0.374 | 0.574 | > 10 | 0.238 | –
